What all share (format): cell-based
The subject of data set [1] is A-SMase. Kind of data set: Western blot of A-SMase protein after antisense knockdown in primary human neurons. Conditions: 48 h with oligonucleotide. The protocol:
Because these ASOs have become a very critical part of our study, the efficacy of N-SMase and A-SMase ASOs in inhibiting the protein expression of N-SMase and A-SMase was checked by western blot. […] Next, the effect of antisense knockdown of neuronal N-SMase and/or A-SMase on activated glia-induced neuronal apoptosis by TUNEL was investigated. […] As evidenced by a decrease In MTT metabolism, activated astroglia reduced neuronal viability (FIG. 2E).
Primary human neurons were incubated with antisense (ASO) and scrambled oligonucleotides (ScO) against N-SMase (A) and A-SMase (FIG. 2B). After 48 h, neurons were analyzed for protein expression of N-SMase and A-SMase. In FIG. 2C, primary human astrocytes seeded in inserts were stimulated by the combination of Aβ and IL-1β as described above. […] After 6 h of treatment with activated astrocytes, apoptotic events in neurons were detected by TUNEL. In FIG. 2D, TUNEL-positive cells were counted manually in four different images of each of three coverslips by three individuals blinded to the experiment. In FIG. 2E, after 18 h of stimulation, cell viability was examined by the metabolism of MTT and the release of LDH. […] Cell viability was checked by MTT (FIG. 2F) and LDH (FIG. 2G). Values obtained from the control group served as 100%, and data obtained in other groups were calculated as percent of control accordingly. […]
(In general: A western blot detects proteins with antibodies after separation by electrophoresis.)

The next data set deals with primary human neurons. Kind of data set: TUNEL apoptosis of neurons challenged by (fibrillar Aβ+IL-1β)-activated astrocytes, astrocyte-neuron trans-well. To be noted: neurons pretreated 40 h with 1 μM oligonucleotide; 6 h with (fibrillar Aβ+IL-1β)-activated astrocytes. The protocol:
Primary human astrocytes were grown to confluency on inserts. After 24 h of stimulation by the combination of Aβ (1 μM) and IL-Iβ (10 ng/ml), inserts were washed thrice with HBSS and then placed onto the wells containing primary human neurons. Therefore, in this trans-well model, although neurons and astrocytes face each other, they are separable and the effect of soluble factors released from activated astrocytes on neurons can be studied allowing analysis of neuronal and glial populations separately.
Fragmented DNA was detected in situ by the terminal deoxynucleotidyltransferase-mediated binding of 3′-OH ends of DNA fragments generated in response to fibrillar Aβ1-42, using a commercially available kit (TdT FragEL™) from Calbiochem. […]
Primary human neurons were incubated with antisense (ASO) and scrambled oligonucleotides (ScO) against N-SMase (A) and A-SMase (FIG. 2B). After 48 h, neurons were analyzed for protein expression of N-SMase and A-SMase. […] After 6 h of treatment with activated astrocytes, apoptotic events in neurons were detected by TUNEL. In FIG. 2D, TUNEL-positive cells were counted manually in four different images of each of three coverslips by three individuals blinded to the experiment. […] Values obtained from the control group served as 100%, and data obtained in other groups were calculated as percent of control accordingly. […]

Another data set deals with T1, N-SMase (Homo sapiens, UniProt Q9NY59).
T1 construct: endogenous in cells; host or cells: primary human neurons
T1 sequence (Q9NY59 1-655): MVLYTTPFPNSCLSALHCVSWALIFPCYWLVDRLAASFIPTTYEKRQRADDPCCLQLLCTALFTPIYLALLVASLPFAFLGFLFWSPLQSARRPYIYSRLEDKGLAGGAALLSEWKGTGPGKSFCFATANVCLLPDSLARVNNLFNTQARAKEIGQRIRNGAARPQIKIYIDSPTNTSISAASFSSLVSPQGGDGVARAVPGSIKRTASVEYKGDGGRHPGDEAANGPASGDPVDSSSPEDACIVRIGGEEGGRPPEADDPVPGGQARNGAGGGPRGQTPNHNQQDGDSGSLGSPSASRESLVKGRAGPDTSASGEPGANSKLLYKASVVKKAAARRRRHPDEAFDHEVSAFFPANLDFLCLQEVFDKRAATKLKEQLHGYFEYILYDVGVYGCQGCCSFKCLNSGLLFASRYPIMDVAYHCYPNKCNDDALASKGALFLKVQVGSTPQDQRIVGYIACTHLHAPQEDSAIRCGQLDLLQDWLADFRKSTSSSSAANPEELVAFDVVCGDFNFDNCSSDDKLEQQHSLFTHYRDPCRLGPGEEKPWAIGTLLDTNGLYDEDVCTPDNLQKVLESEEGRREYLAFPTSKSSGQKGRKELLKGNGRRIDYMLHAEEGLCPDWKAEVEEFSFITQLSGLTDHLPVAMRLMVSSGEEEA
Kind of data set: Assay of N-SMase activity in primary human neurons. To be noted: activated astroglia-insulted human neurons, chemical inhibitors. How it is done:
Activities of SMase(s) were assayed as described by. Briefly, after treatment, the cells were washed with PBS, harvested in PBS, divided into two halves, and centrifuged. The fraction for N-SMase was resuspended in buffer A (100 mM Tris-HCl, pH 7.4, 0.1% Triton X-100, 1 mM EDTA, and protease inhibitors), and the cell suspension was sonicated and centrifuged at 500×g at 4° C. for 5 min. The supernatant was used as the enzyme source for N-SMase. The reaction mixture contained enzyme preparation in buffer A containing 5 nmol of [^14C] sphingomyelin, 5 nmol of phosphatidylserine, 5 mM dithiothreitol, and 5 mM MgC¾ in a final volume of 100 μl. Similarly, the fraction for A-SMase was resuspended in buffer B (100 mM sodium acetate, pH 5.0, 0.1% Triton X-100, and protease inhibitors). The cell suspension was sonicated and centrifuged. The supernatant was used as the source of A-SMase. The activity of A-SMase was measured in a 100-μl reaction mixture consisting of the enzyme preparation in buffer B and 5 nmol of [^14C] sphingomyelin. The enzyme reaction was initiated by the addition of 50 μl of substrate and stopped by the addition of 1.5 ml of chloroform:methanol (2:1, v/v) and 0.2 ml of water. After vortexing and phase separation, the aqueous phase was removed for counting.
In FIGS. 3A-3E, primary human astrocytes seeded in inserts were stimulated by the combination of Aβ and IL-Iβ as described above. After 24 h, media were removed and inserts were washed and placed on neurons that were pretreated with PTIO for 30 min. In FIG. 3A, after 1 h, activity of N-SMase was measured in total cell extracts of neurons as described above. After 18 h, neuronal viability was examined by the metabolism of MTT (FIG. 3B) and the release of LDH (FIG. 3C). Values obtained from the control group served as 100%, and data obtained in other groups were calculated as percent of control accordingly. Results are mean+S.D. of three different experiments. ^ap<0.001 vs control; ^bp<0.001 vs activated astrocytes. Primary human neurons were treated with 25 μM DETA-NONOate (a NO donor) and at different time points of treatment, activities of N-SMase (FIG. 3D) and A-SMase (FIG. 3E) were monitored. ^ap<0.001 vs control (0 h).

Data set [2] deals with T2, A-SMase (Homo sapiens, UniProt P17405).
T2 construct: The supernatant was used as the source of A-SMase; endogenous in cells; host or cells: primary human neurons
T2 sequence (P17405 47-631): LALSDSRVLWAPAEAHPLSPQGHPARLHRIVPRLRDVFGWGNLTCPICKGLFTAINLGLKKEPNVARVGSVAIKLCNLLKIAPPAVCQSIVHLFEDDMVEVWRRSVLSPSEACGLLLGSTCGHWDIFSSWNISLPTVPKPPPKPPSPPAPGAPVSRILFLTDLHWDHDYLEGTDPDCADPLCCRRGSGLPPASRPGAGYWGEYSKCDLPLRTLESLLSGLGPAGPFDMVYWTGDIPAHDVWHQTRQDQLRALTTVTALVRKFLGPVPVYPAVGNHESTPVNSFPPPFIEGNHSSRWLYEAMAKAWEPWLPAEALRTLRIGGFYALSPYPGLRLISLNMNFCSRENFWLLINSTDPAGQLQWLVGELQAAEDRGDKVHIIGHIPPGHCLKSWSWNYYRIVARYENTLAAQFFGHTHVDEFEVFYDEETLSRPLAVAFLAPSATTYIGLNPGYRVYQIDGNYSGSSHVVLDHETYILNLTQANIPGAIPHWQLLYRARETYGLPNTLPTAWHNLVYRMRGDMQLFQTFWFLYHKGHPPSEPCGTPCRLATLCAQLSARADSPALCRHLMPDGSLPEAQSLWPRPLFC
Kind of data set: Assay of A-SMase activity in primary human neurons. Conditions: activated astroglia-insulted human neurons, chemical inhibitors. The protocol:
Activities of SMase(s) were assayed as described by. Briefly, after treatment, the cells were washed with PBS, harvested in PBS, divided into two halves, and centrifuged. The fraction for N-SMase was resuspended in buffer A (100 mM Tris-HCl, pH 7.4, 0.1% Triton X-100, 1 mM EDTA, and protease inhibitors), and the cell suspension was sonicated and centrifuged at 500×g at 4° C. for 5 min. The supernatant was used as the enzyme source for N-SMase. The reaction mixture contained enzyme preparation in buffer A containing 5 nmol of [^14C] sphingomyelin, 5 nmol of phosphatidylserine, 5 mM dithiothreitol, and 5 mM MgC¾ in a final volume of 100 μl. […] The activity of A-SMase was measured in a 100-μl reaction mixture consisting of the enzyme preparation in buffer B and 5 nmol of [^14C] sphingomyelin. […]
In FIGS. 3A-3E, primary human astrocytes seeded in inserts were stimulated by the combination of Aβ and IL-Iβ as described above. […] In FIG. 3A, after 1 h, activity of N-SMase was measured in total cell extracts of neurons as described above. […] Values obtained from the control group served as 100%, and data obtained in other groups were calculated as percent of control accordingly. […] Primary human neurons were treated with 25 μM DETA-NONOate (a NO donor) and at different time points of treatment, activities of N-SMase (FIG. 3D) and A-SMase (FIG. 3E) were monitored. ^ap<0.001 vs control (0 h).

For another data set, the system named is primary human astroglia. Kind of data set: NO synthesis (nitrite, Griess reagent) in primary human astroglia. To be noted: astroglia preincubated 30 min with different concentrations of chemical inhibitor; nitrite after 24 h. The protocol:
Synthesis of NO was determined by assay of culture supernatants for nitrite, a stable reaction product of NO with molecular oxygen, using Griess reagent as described.
After 24 h of stimulation, the concentration of nitrite was measured in supernatants (FIG. 4A) by Griess reagent. […] Cells were treated with ASO/ScO for 40 h followed by stimulation with the combination of fibrillar Aβ and IL-Iβ as above. After 6 h, the expression of iNOS mRNA was analyzed by both semi-quantitative RT-PCR (C) and quantitative real-time PCR (FIG. 4D). The expression of TNF-a, IL-6 and IL-Iβ mRNAs were analyzed by semi-quantitative RT-PCR (FIG. 4E). Results are mean±SD of three different experiments. ^ap<0.001 vs control; ^bp<0.001 vs (Aβ+IL-Iβ).
In general terms: The Griess reaction detects nitrite, a stable product of nitric oxide.

Results on two molecules are retold here after patent US9006205B2, “Antisense oligonucleotides against neutral sphingomyelinase and neutral sphingomyelinase inhibitor GW4869 for degenerative neurological disorders” (Rush University Medical Center, priority 2011, dated 2015).

As for “5′- GACATCTCGGAGCCGGGGCA -3′ (DNA, all phosphorothioate, methylation of C not given here) [ASO against A-SMase, ID; NO.: 14]”, the “level of A-SMase protein” value with A-SMase [1] is “suppressed”. In addition, in the data set with primary human neurons, the “protection of neurons from activated astrocyte-induced apoptosis (TUNEL)” value is recorded as “failed to rescue neurons”.

For `CN(C)CCCN1c2ccccc2CCc2ccccc21` [imipramine], the “activity of N-SMase” value on N-SMase is listed as “but not N-SMase”. Also, at A-SMase [2], the “activity of A-SMase” value is on record as “inhibited”. Moreover, in the data set on primary human astroglia, the “(Aβ+IL-1β)-induced production of NO” value was “showed no effect”.
